According to patent US6762227B1, “Inhibition of marine biofouling of surfaces” (I-Tech AB, priority 1999, dated 2004):
Like-named read-outs stand apart in the source and are kept apart here.

What was measured:
[1] = test system: Cyprid larvae from Balanus improvisus
Experimental: Cyprid larvae from Balanus improvisus were transferred to Petri dishes containing seawater from the Swedish west coast and medetomidine in various concentrations (0.1 nM, 1 nM, 10 nM, 100 nM and 1 μM). In addition, for control purposes, cyprid larvae were transferred to a Petri dish containing seawater only. After 11 days the cyprids were counted and classified as either 1) settled (established) on the surface of the Petri dish, 2) swimming, i.e. living, not established, or 3) dead. The results in the table are expressed in percentage of the total number of organisms in each group (=n).
This example corresponds to Example 1 with the exception that medetomidine was replaced by clonidine in the concentrations defined in Table 2 below.

cyprid larvae [2] = settings: cleaned, as Example 3
Experimental: Petri dishes of hydrophilic polystyrene were filled with a solution of medetomidine in varying concentrations (0 ng/ml 10 ng/ml, 1 μg/ml and 10 μg/ml). Like in Example 1, one Petri dish with no medetomidine was used as control. After a 24 hour incubation period in room temperature the dishes were cleaned thoroughly with seawater. The dishes were then incubated with cyprid larvae in amounts of approximately 20 larvae/dish. Readings were taken under microscope after 7 days, and the larvae were classified as either settled, free-swimming or dead.
Example 3 was repeated, with the difference that Petri dishes of hydrophobic polystyrene were used instead of hydrophilic dishes.

cyprid larvae [3] = settings: for Dead / Settled / Swimming: cleaned, reading after 7 days
Experimental: Petri dishes of hydrophilic polystyrene were filled with a solution of medetomidine in varying concentrations (0 ng/ml 10 ng/ml, 1 μg/ml and 10 μg/ml). […] After a 24 hour incubation period in room temperature the dishes were cleaned thoroughly with seawater. The dishes were then incubated with cyprid larvae in amounts of approximately 20 larvae/dish. Readings were taken under microscope after 7 days, and the larvae were classified as either settled, free-swimming or dead.

[4] = test system: tube building polychaetes (Hydroides elegans); settings: for Dead / Settled / Swimming: incubated two days
Experimental: The polychaete larvae were incubated for two days in Petri dishes containing sea water and were then classified as either settled, free swimming or dead, like in Example 1. The water originated from the coast outside Sydney, Australia, and the experiment was carried out in May 1999.

[5] = test system: acorn barnacles (Balanus improvisus); settings: for Number of Balanus improvisus/10 cm^2: acrylate-based paint with 0.02% by weight medetomidine
Experimental: Medetomidine was added to an acrylate-based paint formula to a concentration of 0.02% by weight (or 170 μg/ml). The paint was then applied on 10 test surfaces dimensioned 10×10 cm^2. The surfaces were allowed to dry at room temperature and were then mounted on racks, which were placed at a depth of about one meter in a bay in the sea offshore from Strömstad, Sweden, and were allowed to remain there during August and September of 1999. After 2, 4 and 8 weeks, respectively, the test surfaces were removed from the sea and the number of acorn barnacles (Balanus improvisus) were counted.

[6] = clonidine 0.027 ng/ml, as Example 1
[7] = clonidine 0.27 ng/ml, as Example 1
[8] = clonidine 2.7 ng/ml, as Example 1
[9] = clonidine 27 ng/ml, as Example 1
[10] = clonidine 270 ng/ml, as Example 1
[11] = medetomidine 0.1 nM, after 11 days, % of total organisms
[12] = medetomidine 1 nM, after 11 days, % of total organisms
[13] = medetomidine 10 nM, after 11 days, % of total organisms
[14] = medetomidine 100 nM, after 11 days, % of total organisms
[15] = medetomidine 1000 nM, after 11 days, % of total organisms
[16] = hydrophobic polystyrene dish pre-incubated with medetomidine 1 ng/ml
[17] = hydrophobic polystyrene dish pre-incubated with medetomidine 10 ng/ml
[18] = hydrophobic polystyrene dish pre-incubated with medetomidine 1000 ng/ml
[19] = hydrophobic polystyrene dish pre-incubated with medetomidine 10000 ng/ml
[20] = hydrophilic polystyrene dish pre-incubated 24 h with medetomidine 1 ng/ml
[21] = hydrophilic polystyrene dish pre-incubated 24 h with medetomidine 10 ng/ml
[22] = hydrophilic polystyrene dish pre-incubated 24 h with medetomidine 1000 ng/ml
[23] = hydrophilic polystyrene dish pre-incubated 24 h with medetomidine 10000 ng/ml

SMILES: Clc1cccc(Cl)c1NC1=NCCN1 [clonidine, 2-(2,6-di-chloro-anilino)-2-imidazoline]
- Dead ([1]; Balanus improvisus, in vivo, 11 days, 0.027 ng/ml): 0%
- Dead ([1]; Balanus improvisus, in vivo, 11 days, 0.27 ng/ml): 0%
- Dead ([1]; Balanus improvisus, in vivo, 11 days, 2.7 ng/ml): 1.7%
- Dead ([1]; Balanus improvisus, in vivo, 11 days, 27 ng/ml): 1.5%
- Dead ([1]; Balanus improvisus, in vivo, 11 days, 270 ng/ml): 8.3%
- Settled [1, 6]: 36.7%
- Swimming [1, 6]: 65.7%
- Settled [1, 7]: 22.3%
- Swimming [1, 7]: 77.7%
- Settled [1, 8]: 1.8%
- Swimming [1, 8]: 96.5%
- Settled [1, 9]: 0%
- Swimming [1, 9]: 98.5%
- Settled [1, 10]: 0%
- Swimming [1, 10]: 91.7%

SMILES: Cc1cccc(C(C)c2cnc[nH]2)c1C (racemic) [medetomidine, (±)-4-[1-(2,3-dimethylphenyl)-ethyl]-1H-imidazole-mono-hydrogen chloride]
- Dead [1, 11]: 0%
- Settled [1, 11]: 52%
- Swimming [1, 11]: 48%
- Dead [1, 12]: 0%
- Settled [1, 12]: 1.5%
- Swimming [1, 12]: 98%
- Dead [1, 13]: 0%
- Settled [1, 13]: 0%
- Swimming [1, 13]: 100%
- Dead [1, 14]: 0%
- Settled [1, 14]: 0%
- Swimming [1, 14]: 100%
- Dead [1, 15]: 0%
- Settled [1, 15]: 0%
- Swimming [1, 15]: 100%
- number of established larvae ([1]; upon increased concentration of medetomidine (0.1 nM to 1 μM)): decreased upon increased concentration
- number of dead cyprids ([1]; upon increased contents of medetomidine (0.1 nM to 1 μM)): did not increase
- Dead (cyprid larvae [2]; [16]): 0%
- Settled (cyprid larvae [2]; [16]): 63.1%
- Swimming (cyprid larvae [2]; [16]): 36.9%
- Dead (cyprid larvae [2]; [17]): 2.1%
- Settled (cyprid larvae [2]; [17]): 33.3%
- Swimming (cyprid larvae [2]; [17]): 65%
- Dead (cyprid larvae [2]; [18]): 0%
- Settled (cyprid larvae [2]; [18]): 0%
- Swimming (cyprid larvae [2]; [18]): 100%
- Dead (cyprid larvae [2]; [19]): 2.1%
- Settled (cyprid larvae [2]; [19]): 0%
- Swimming (cyprid larvae [2]; [19]): 97.9%
- number of settled acorn barnacles (cyprid larvae [3]; also at very low medetomidine incubation concentrations): significant reduction
- Dead (cyprid larvae [3]; [20]): 0%
- Settled (cyprid larvae [3]; [20]): 6.2%
- Swimming (cyprid larvae [3]; [20]): 93.8%
- Dead (cyprid larvae [3]; [21]): 0%
- Settled (cyprid larvae [3]; [21]): 0%
- Swimming (cyprid larvae [3]; [21]): 100%
- Dead (cyprid larvae [3]; [22]): 0%
- Settled (cyprid larvae [3]; [22]): 0%
- Swimming (cyprid larvae [3]; [22]): 100%
- Dead (cyprid larvae [3]; [23]): 0%
- Settled (cyprid larvae [3]; [23]): 0%
- Swimming (cyprid larvae [3]; [23]): 100%
- effect on settling of polychaete larvae ([4]; concentration span of from 0.1 nM to 100 μM): significant inhibiting effect
- Dead ([4]; medetomidine 0.1 nM): 2.3%
- Settled ([4]; medetomidine 0.1 nM): 9.3%
- Swimming ([4]; medetomidine 0.1 nM): 88.4%
- Dead ([4]; medetomidine 1 nM): 5.4%
- Settled ([4]; medetomidine 1 nM): 5.4%
- Swimming ([4]; medetomidine 1 nM): 89.2%
- Dead ([4]; medetomidine 10 nM): 4.4%
- Settled ([4]; medetomidine 10 nM): 0%
- Swimming ([4]; medetomidine 10 nM): 95.6%
- Dead ([4]; medetomidine 100 nM): 20%
- Settled ([4]; medetomidine 100 nM): 0%
- Swimming ([4]; medetomidine 100 nM): 80%
- Dead ([4]; medetomidine 1000 nM): 45.7%
- Settled ([4]; medetomidine 1000 nM): 0%
- Swimming ([4]; medetomidine 1000 nM): 54.3%
- Dead ([4]; medetomidine 100 000 nM): 100%
- Settled ([4]; medetomidine 100 000 nM): 0%
- Swimming ([4]; medetomidine 100 000 nM): 0%
- toxic effects on polychaete larvae ([4]; span from 100 nM to 100 μM): toxic effects appear
- Number of Balanus improvisus/10 cm^2 ([5]; 2 weeks in the sea): 4.63 ± 1.04 /10 cm^2
- Number of Balanus improvisus/10 cm^2 ([5]; 4 weeks in the sea): 5.6 ± 1.4 /10 cm^2
- Number of Balanus improvisus/10 cm^2 ([5]; 8 weeks in the sea): 148.1 ± 16.24 /10 cm^2
- number of acorn barnacles on the test surfaces compared with the control surfaces ([5]; paint with 0.02% by weight medetomidine, 2, 4 and 8 weeks): significant reduction
